Key:
Cruzipain = Cruzipain (Trypanosoma cruzi, UniProt P25779); test: Affinity for cysteine protease (Cruzipain) of Chagas' disease
Procathepsin L = Procathepsin L (Homo sapiens, UniProt P07711); test: Affinity for human Cathepsin L
Cathepsin B = Cathepsin B (Homo sapiens, UniProt P07858); test: Affinity for human Cathepsin B

Chain of Procathepsin L (P07711 whole entry): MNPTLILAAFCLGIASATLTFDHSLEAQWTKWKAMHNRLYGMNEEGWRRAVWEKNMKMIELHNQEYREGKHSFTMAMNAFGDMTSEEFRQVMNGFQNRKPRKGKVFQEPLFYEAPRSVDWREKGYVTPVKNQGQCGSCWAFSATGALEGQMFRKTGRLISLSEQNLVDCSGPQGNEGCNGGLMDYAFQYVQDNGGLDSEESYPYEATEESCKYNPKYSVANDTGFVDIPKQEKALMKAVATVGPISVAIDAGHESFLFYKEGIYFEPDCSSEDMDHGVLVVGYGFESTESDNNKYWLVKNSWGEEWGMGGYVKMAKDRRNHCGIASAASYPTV
Chain of Cruzipain (P25779 whole entry): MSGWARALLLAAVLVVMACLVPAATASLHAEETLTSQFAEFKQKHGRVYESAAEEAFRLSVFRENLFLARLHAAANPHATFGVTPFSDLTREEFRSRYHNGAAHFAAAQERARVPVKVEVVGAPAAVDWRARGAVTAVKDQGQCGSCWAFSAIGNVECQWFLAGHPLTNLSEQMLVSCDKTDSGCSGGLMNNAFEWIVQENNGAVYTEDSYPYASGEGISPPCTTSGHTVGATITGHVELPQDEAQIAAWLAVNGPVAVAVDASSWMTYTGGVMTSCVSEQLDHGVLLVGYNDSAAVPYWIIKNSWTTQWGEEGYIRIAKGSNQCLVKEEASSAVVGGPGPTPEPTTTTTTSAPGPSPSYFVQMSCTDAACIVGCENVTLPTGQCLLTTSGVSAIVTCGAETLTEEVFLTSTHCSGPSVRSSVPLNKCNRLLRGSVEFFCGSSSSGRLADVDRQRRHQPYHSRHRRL

| Ki (Cruzipain) | Ki (Procathepsin L) | Ki (Cathepsin B) | Structure (SMILES) |
| --- | --- | --- | --- |
| 53.2 nM |  |  | O=C(N[C@@H](Cc1ccccc1)C(=O)NC1CC(=O)N(CCc2ccccc2)CC1=O)OCc1ccccc1 (stereo in doubt) |
| 53 nM | 93 nM | 6170 nM | O=C(N[C@@H](Cc1ccccc1)C(=O)NC1CC(=O)N(CCc2ccccc2)CC1=O)OCc1ccccc1 (stereo in doubt; 4f) |
|  |  | > 10000 nM | CC(C)C[C@@H](C(=O)NCC(=O)CNS(=O)(=O)c1ccc(Oc2ccccc2)cc1)c1cccc(-c2ccccc2)c1 |
| 202 nM |  |  | O=C(N[C@@H](Cc1ccccc1)C(=O)NC1CC(=O)N(Cc2ccccc2)CC1=O)OCc1ccccc1 (stereo in doubt) |
| 366 nM | 232 nM | 10500 nM | CCCN1CC(=O)C(NC(=O)[C@H](Cc2ccccc2)NC(=O)OCc2ccccc2)CC1=O (stereo partly specified) |
| 16 nM | 19 nM | 693 nM | O=C(N[C@@H](Cc1ccccc1)C(=O)NC1CC(=O)N(CCCc2ccccc2)CC1=O)OCc1ccccc1 (stereo in doubt; 4e) |
| 274 nM | 299 nM | 4550 nM | CC(C)CN1CC(=O)C(NC(=O)[C@H](Cc2ccccc2)NC(=O)OCc2ccccc2)CC1=O (stereo partly specified) |
| 983 nM | 865 nM | > 10000 nM | COCCN1CC(=O)C(NC(=O)[C@H](Cc2ccccc2)NC(=O)OCc2ccccc2)CC1=O (stereo partly specified) |
|  |  | > 1000 nM | CC(C)C[C@H](NC(=O)OCc1ccccc1)C(=O)NC1CN(C(=O)[C@H](CC(C)C)NC(=O)OCc2ccccc2)CC1=O (stereo partly specified) |
| 384 nM | 597 nM | 12900 nM | CC(C)N1CC(=O)C(NC(=O)[C@H](Cc2ccccc2)NC(=O)OCc2ccccc2)CC1=O (stereo partly specified) |
| 16.3 nM |  |  | O=C(N[C@@H](Cc1ccccc1)C(=O)NC1CC(=O)N(CCCc2ccccc2)CC1=O)OCc1ccccc1 (stereo in doubt) |
| 202 nM | 377 nM | 13200 nM | O=C(N[C@@H](Cc1ccccc1)C(=O)NC1CC(=O)N(Cc2ccccc2)CC1=O)OCc1ccccc1 (stereo in doubt; 4g) |

From ChEMBL document CHEMBL1134918, “General solid-phase method to prepare novel cyclic ketone inhibitors of the cysteine protease cruzain” (Bioorg Med Chem Lett, 2002)
